Assay [1] deals with adipocytes prepared from murine adipous tissues. In words: LDH released into the culture medium by murine adipocytes. The following applies: TDC 500 μM in 150 mOsm/L, compared with 150 mOsm/L alone (FIG. 7). The assay is classed as cell-based. As for the experimental part:
Adipocytes were prepared from murine adipous tissues in the following way. Adipous tissues were sampled under aseptic conditions on anesthetized animals, and then finally cut and subjected to a dissociating enzymatic treatment with collagenase type II at 37° C. The incubation mixture was then centrifuged in order to remove the tissue debris. The adipocytes were purified by filtration under sterile conditions on a 160 μm nylon filter. After mild centrifugation, the adipocytes were washed from a phosphate buffer solution with pH 7.4 and, after counting, taken up again into a cell culture medium adapted from the type of Dubelco Modified Eagle's Medium or DMEM, and finally placed in sterile culture flasks and incubator at 37° C. adapted to the experiments. […]
Cell lysis was appreciated by the change in the number of adipocytes on the one hand and by the dosage of an intracellular enzyme released into the culture medium, lactico-dehydrogenase (abbreviated hereafter as LDH) on the other hand, expressed as a percentage with respect to the conditions for which cell lysis is complete (obtained in the presence of distilled water) and by comparison with the conditions of cell cultures.
A general note: LDH leaks from cells whose membrane has failed.

Assay [2] has as its system line of human adipocytes (SW872). In words: LDH activity released on lysis of human adipocytes in culture. The format is cell-based. As for the experimental part: To do this, adipocytes were incubated for durations comprised between 0 and 2 hours, in aqueous saline solutions according to the invention, and for which the concentrations of poloxamers and of biliary acid […]
The efficiency of adipocyte lysis was appreciated by the measurement of the activity of a cytosolic enzyme lactico dehydrogenase (LDH), released in the culture medium and expressed as a percentage of the total lysis.
The cells were derived from a line of human adipocytes (SW872) stemming from a liposarcoma deposited at the American Cell Bank of the National Institute of Health (NIH).
The adipocytes were cultivated in the following medium: DMEM (Dubelco's modified Eagle medium) with a high glucose content (4.5 g/L) which contained pyruvate, antibiotics (penicillin/streptomycin), a supplement of amino acids and 25% of Ham-F12 medium.
It should be noted that the experiments were then conducted in the presence of 1% fetal calf serum in order to minimize basal LDH activity likely to be present in the serum.
The salts of biliary acids and/or the poloxamers were put into solution in the aforementioned culture medium under sterile conditions. Suitable diluted aqueous saline solutions were made from parent solutions at 2% for poloxamers and 3 mM for the biliary acid salt.
The adipocytes were cultivated under sterile conditions (plastic dishes, incubator with 5% CO2, 37° C.) in suitable specific media and used for less than 10 passages oso as to conduct experiments on primary cells, i.e. close to the original adipous tissues. Cell counts were carried out in Mallassez cells and the viability was appreciated by exclusion of the blue dye Trypan.
After re-suspending them under the action of trypsin, the adipocytes were incubated in sterile 96-well plates. For experiments requiring significant amounts of cells, the preliminary incubations were conducted in sterile 24-well plates, and then transferred into 96-well plates (round bottom) for centrifugation, in order to efficiently separate entire cells from lyzed cells having released their enzymatic content then again found in the supernatant. An aliquot (100 μL) of the latter was then transferred into another 96-well plate adapted to dosages (flat bottom). After addition of the mixture of corresponding reagents (kit BioChain #K6330400), LDH activity was then measured (after incubation for 40 minutes with intermittent orbital stirring) in a computerized plate reader (MR5000/Biolinx, Dynatech) at the wavelength of 490 nm corrected from absorbance at 630 nm. The results are expressed as a percentage of the total lysis carried out in the presence of detergent (1% Triton X100).

This is an account of results in patent US20110262562A1, “AQUEOUS SALINE SOLUTIONS FOR THE DESTRUCTION OF FATTY TISSUE” (LIPOLYANE, priority 2008, published 2011).

For the molecule `C[C@H](CCC(=O)NCCS(=O)(=O)[O-])[C@H]1CC[C@H]2[C@@H]3CC[C@@H]4C[C@H](O)CC[C@]4(C)[C@H]3C[C@H](O)[C@]12C.[Na+]` [TDC, sodium tauro-deoxycholate], the “activity of LDH in the medium” value in assay [1] was “much more increased”.
Consider sodium deoxycholate [DC], for which the “lytic activity (LDH activity)” value in assay [2] (300 mOsm/L, 750 μM of DC, after one hour (FIG. 15 B)) was 38±5%. The “maximum lysis (LDH activity)” value in assay [2] (300 mOsm/L, DC 0 to 750 μM, incubation of one hour) is recorded as 42±7%. In addition, the LDH activity in assay [2] (300 mOsm/L, DC 750 μM, after 30 minutes of incubation) is listed as 26%; in assay [2] (300 mOsm/L, DC 750 μM, after 2 hours of incubation), 37%; in assay [2] (DC 750 μM added to hypo-osmolar (160 mOsm/L) aqueous saline solution, after one hour (FIG. 15 D or F)), ~72±8%.
